Laboratory results taken from US20230414774A1, “ANTI-CLDN18.2 ANTIBODY, DRUG CONJUGATE, AND PREPARATION METHOD THEREFOR AND USE THEREOF” (CSPC MEGALITH BIOPHARMACEUTICAL CO., LTD., priority 2020, published 2023).
Each block holds one molecule with its values, some of them ahead of it.

Columns and labels:
[1] = tested on: human gastric cancer NUGC-4-18.2 xenografts; assay: In vivo efficacy, xenograft, cisplatin as reference; parameters: species or system nude mice; details: i.v., 6 mg/kg qw×3, day 20
Method: 2) In this experiment, nude mice with human gastric cancer NUGC-4-18.2 xenografts were used. When the tumor volume reached about 120 mm^3 (day 6 after inoculation), 64 animals with bulky xenografts were selected and divided into eight groups (on day 0) with tumor volume balancing among groups. Eight animals in individual groups were intravenously administered 0.9% sodium chloride injection (0.9% INJ NS, vehicle control group), SYJS001-ADC at 1, 2 and 4 mg/kg (qw×3), SYJS001-ADC at 4 and 8 mg/kg (single dose), SYJS001-mAb at 4 mg/kg (qw×3) and Cisplatin at 6 mg/kg (qw×3, once a week for 3 weeks), respectively. Tumor diameters were measured twice a week. Mice were weighed, and data were recorded. Tumor growth was dynamically observed by measuring tumor diameters at different times after dosing. At the end of the experiment on day 20, the mice were asphyxiated with carbon dioxide, and the tumors were peeled and weighed.

[2] = tested on: human pancreatic cancer Bxpc3-18.2 xenografts; assay: In vivo efficacy, xenograft, gemcitabine as reference; parameters: species or system nude mice; details: i.v., 50 mg/kg biw×4, day 28
Method: 1) In this experiment, nude mice with human pancreatic cancer Bxpc3-18.2 xenografts were used. When the tumor volume reached about 100 mm^3 (day 39 after inoculation), 48 animals with bulky xenografts were selected and divided into six groups (on day 0) with tumor volume balancing among groups. Eight animals in individual groups were intravenously administered 0.9% sodium chloride injection (0.9% INJ NS, vehicle control group), SYJS001-ADC at 2, 4 and 8 mg/kg (single dose), SYJS001-mAb (SYJS001 nude antibody) at 8 mg/kg (single dose) and Gemcitabine (GEM) at 50 mg/kg (biw×4, twice a week for 4 weeks), respectively. Tumor diameters were measured twice a week. Mice were weighed, and data were recorded. Tumor growth was dynamically observed by measuring tumor diameters at different times after dosing. At the end of the experiment on day 28, the mice were asphyxiated with carbon dioxide, and the tumors were peeled and weighed.

[3] = biological target: human CLDN18.2 on cells (human) (UniProt P56856); assay: flow cytometry on BxPC3-CLDN18.2 cells, ED50 comparison

Molecule: N.N.[Cl][Pt][Cl] [Cisplatin]
- tumor weight suppression rate [1]: 66.5%

Molecule: Nc1ccn([C@@H]2O[C@H](CO)[C@@H](O)C2(F)F)c(=O)n1 [Gemcitabine]
- tumor weight suppression rate [2]: 51.0%

- fold affinity against IMAB362 [3]: 2 fold
B1: SYJS001 monoclonal antibody (antibody, human IgG1, kappa, V domains shown)
VH: EVQLSESGGALVQPGESLRLSCAASGFTFSSYAMTWVRQAPGKGLEWVSSLSGSGRSTYYAASIKGRFTISRDNSKNTLYLQMSSLRAEDTAIYYCAKSLSYYHYYFDYWGQGTLVTVSS
VL: DIQLTQSPSFLSASVGDRVPITCRASQDISNYLAWYQQKPGKAPKLLIYSASTLQSGVPSRFSGSGSGTEFTLTISSLQPEDFASYHCQQVKTYPLTFGGGTKVEIKR
